Eight compounds from ChEMBL document CHEMBL1130493, “Dimeric aminoglycosides: Design, synthesis and RNA binding” (Bioorg Med Chem Lett, 1997) can be followed below.

Data set [1] in a line: Compound was tested for the pseudo first-order rate constants for the inhibition of the cleavage step (k2) of the hammerhead ribozyme at a concentration of 10 uM.
Data set [2] in a line: Compound was tested for the pseudo first-order rate constants for the inhibition of the cleavage step (k2) of the hammerhead ribozyme at a concentration of 1 uM.
Data set [3] in a line: Compound was tested for the pseudo first-order rate constants for the inhibition of the cleavage step (k2) of the hammerhead ribozyme at a concentration of 100 uM; not determined at this concentration.
The nature of data set [4]: Compound was tested for the pseudo first-order rate constants for the inhibition of the cleavage step (k2) of the hammerhead ribozyme at a concentration of 100 uM.
Data set [5] is described as follows: Compound was tested for the pseudo first-order rate constants for the inhibition of the cleavage step (k2) of the hammerhead ribozyme at a concentration of 100 uM; too active and complete inhibition is observed.
Assay in data set [6]: as above
The source holds these as a separate data set.

Data set [7] in a line: Compound was tested for the pseudo first-order rate constants for the inhibition of the cleavage step (k2) of the hammerhead ribozyme at a concentration of 1 uM; not determined at this concentration.

Each structure is given as a SMILES string.

For the compound `NCC1O[C@H](O[C@H]2[C@@H](O)[C@H](O[C@H]3[C@H](O)[C@@H](N)C[C@@H](N)[C@@H]3O[C@H]3O[C@H](CN)[C@@H](O)[C@H](O)[C@H]3N)O[C@@H]2CSCCOCCSSCCOCCSC[C@H]2O[C@@H](O[C@H]3[C@H](O)[C@@H](N)C[C@@H](N)[C@@H]3O[C@H]3O[C@H](CN)[C@@H](O)[C@H](O)[C@H]3N)[C@H](O)[C@@H]2O[C@@H]2OC(CN)[C@H](O)[C@@H](O)[C@@H]2N)[C@H](N)[C@@H](O)[C@@H]1O` (stereo partly specified), the K2 in data set [1] was 0.003 min⁻¹; in data set [2], 0.041 min⁻¹; in data set [3] it was “No inhibition”.

As for `NC[C@H]1O[C@H](O[C@H]2[C@H](O)[C@@H](O[C@H]3O[C@H](CO)[C@@H](O)[C@H](N)[C@H]3O)[C@H](N)C[C@@H]2N)[C@H](O)[C@@H](O)[C@@H]1O` [KANAMYCIN A], the K2 is 0.058 min⁻¹ in data set [4]; “Too active and complete inhibition is observed” in data set [5]; “Too active and complete inhibition is observed” in data set [6].

On to `NC[C@H]1OC(O[C@H]2[C@H](O)[C@@H](OC3O[C@H](CO)[C@@H](O)[C@H](N)[C@H]3O)[C@H](N)C[C@@H]2N)[C@H](N)C[C@@H]1O` (single isomer, unassigned) [TOBRAMYCIN], for which the K2 is 0.012 min⁻¹ in data set [4]; 0.051 min⁻¹ in data set [1]; “Too active and complete inhibition is observed” in data set [5].

In the case of `NC[C@H]1O[C@H](O[C@H]2[C@H](O)[C@@H](O[C@H]3O[C@H](CSCCOCCSSCCOCCSC[C@H]4O[C@H](O[C@@H]5[C@@H](O)[C@H](O[C@H]6O[C@H](CN)[C@@H](O)C[C@H]6N)[C@@H](N)C[C@H]5N)[C@H](O)[C@@H](N)[C@@H]4O)[C@@H](O)[C@H](N)[C@H]3O)[C@H](N)C[C@@H]2N)[C@H](O)[C@@H](O)[C@@H]1O`, the K2 in data set [1] was 0.014 min⁻¹; in data set [5] it was “Too active and complete inhibition is observed”.

As for `NC[C@@H]1O[C@H](O[C@H]2[C@@H](O)[C@H](O[C@@H]3[C@@H](O)[C@H](N)C[C@H](N)[C@H]3O[C@H]3O[C@H](CN)[C@@H](O)[C@H](O)[C@H]3N)O[C@@H]2CO)[C@H](N)[C@@H](O)[C@@H]1O` [FRAMYCETIN], the K2 was 0.018 min⁻¹ in data set [1], 0.062 min⁻¹ in data set [2] and “No inhibition” in data set [3].

As to `NC[C@H]1O[C@H](O[C@H]2[C@H](O)[C@@H](O[C@H]3O[C@H](CSCCOCCSSCCOCCSC[C@H]4O[C@H](O[C@@H]5[C@@H](O)[C@H](O[C@H]6O[C@H](CN)[C@@H](O)C[C@H]6N)[C@@H](N)C[C@H]5N)[C@H](O)[C@@H](N)[C@@H]4O)[C@@H](O)[C@H](N)[C@H]3O)[C@H](N)C[C@@H]2N)[C@H](N)C[C@@H]1O` [Tobramycin-Tobramycin], the K2 in data set [1] is 0.011 min⁻¹; in data set [7], “No inhibition”; in data set [5], “Too active and complete inhibition is observed”.

As for `NCC1O[C@H](O[C@H]2[C@@H](O)[C@H](O[C@H]3[C@H](O)[C@@H](N)C[C@@H](N)[C@@H]3O[C@H]3O[C@H](CN)[C@@H](O)[C@H](O)[C@H]3N)O[C@@H]2CSCCOCCSSCCOCCSC[C@H]2O[C@H](O[C@@H]3[C@@H](O)[C@H](O[C@H]4O[C@H](CN)[C@@H](O)C[C@H]4N)[C@@H](N)C[C@H]3N)[C@H](O)[C@@H](N)[C@@H]2O)[C@H](N)[C@@H](O)[C@@H]1O` (stereo partly specified), the K2 in data set [1] is 0.008 min⁻¹; in data set [2], 0.046 min⁻¹.

With `NC[C@H]1O[C@H](O[C@H]2[C@H](O)[C@@H](O[C@H]3O[C@H](CSCCOCCSSCCOCCSC[C@H]4O[C@H](O[C@@H]5[C@@H](O)[C@H](O[C@H]6O[C@H](CN)[C@@H](O)[C@H](O)[C@H]6O)[C@@H](N)C[C@H]5N)[C@H](O)[C@@H](N)[C@@H]4O)[C@@H](O)[C@H](N)[C@H]3O)[C@H](N)C[C@@H]2N)[C@H](O)[C@@H](O)[C@@H]1O`, the K2 in data set [1] is 0.017 min⁻¹; in data set [5] it was “Too active and complete inhibition is observed”.
